Assay [1] concerns PANC-1 (Pac-1, human pancreatic cancer cells). As to the kind of experiment: MTT cancer cell growth inhibition. In kind it is cell-based. The settings on record: Homo sapiens, PANC-1, 72 h, MTT. A digest of the protocol:
(§1)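 Tumour cells in 10% FBS-supplemented DMEM or RPMI 1640 are plated at 1500 per well, dosed next day with compound (10^−5 through 10^−10 M, final) and kept 72 h. MTT is added for 4 h; dissolved formazan is measured at 570 nm and GI50 determined.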

In assay [2] the test system is KBM5-T315I (human chronic myelogenous leukemia). As to the kind of experiment: MTT cancer cell growth inhibition. Format: cell-based. The settings on record: Homo sapiens, 72 h, MTT, 72 hours incubation, KBM5-T315I cells; read-out: GI50 KBM5-T315I. A digest of the protocol: as §1
Assay [3] has as its system SGC-7901 (human gastric cancer cells). As to the kind of experiment: MTT cancer cell growth inhibition. The settings on record: Homo sapiens, SGC-7901, 72 h, MTT, 72 hours incubation, SGC-7901 cells; read-out: GI50 SGC-7901. Format: cell-based. A digest of the protocol:
as §1

In assay [4] the test system is MOLT-4 (human acute lymphoblastic leukemia cells). As to the kind of experiment: MTT cancer cell growth inhibition. The settings on record: Homo sapiens, MOLT-4, 72 h, MTT. In kind it is cell-based. A digest of the protocol: as §1
The test system of assay [5] is Huh-7 (human hepatoma cells). As to the kind of experiment: MTT cancer cell growth inhibition. The settings on record: Homo sapiens, Huh-7, 72 h, MTT, 72 hours incubation, Huh-7 cells; read-out: GI50 Huh-7. In kind it is cell-based. A digest of the protocol:
as §1

Assay [6] has as its system MDA-MB-231 (breast cancer cells). As to the kind of experiment: MTT cancer cell growth inhibition. Format: cell-based. The settings on record: Homo sapiens, MDA-MB-231, 72 h, read-out: GI50 MDA-MB-231, MTT, 72 hours incubation, MDA-MB-231 cells. A digest of the protocol: as §1
Assay [7] has as its system lncap (prostate cancer cells). As to the kind of experiment: MTT cancer cell growth inhibition. The settings on record: Homo sapiens, LNCaP, 72 h, MTT. Format: cell-based. A digest of the protocol:
as §1

In assay [8] the test system is A549 (human lung cancer cells). As to the kind of experiment: MTT cancer cell growth inhibition. The settings on record: Homo sapiens, A549, 72 h, MTT. Format: cell-based. A digest of the protocol: as §1
The test system of assay [9] is MCF-7 (human breast cancer cells). As to the kind of experiment: MTT cancer cell growth inhibition. Format: cell-based. The settings on record: Homo sapiens, MCF7, 72 h. A digest of the protocol:
as §1

Assay [10] concerns the target HDAC1 (Homo sapiens, UniProt Q13547). As to the kind of experiment: HDAC biochemical activity measurement (fluorescent substrate deacetylation).
Assay [11] addresses HDAC2 (Homo sapiens, UniProt Q92769). The assay is described as above. The settings on record: 37° C. 30 minutes.
In assay [12] the target is T1, HDAC7 (Homo sapiens, UniProt Q8WUI4).
T1 sequence (Q8WUI4 1-952): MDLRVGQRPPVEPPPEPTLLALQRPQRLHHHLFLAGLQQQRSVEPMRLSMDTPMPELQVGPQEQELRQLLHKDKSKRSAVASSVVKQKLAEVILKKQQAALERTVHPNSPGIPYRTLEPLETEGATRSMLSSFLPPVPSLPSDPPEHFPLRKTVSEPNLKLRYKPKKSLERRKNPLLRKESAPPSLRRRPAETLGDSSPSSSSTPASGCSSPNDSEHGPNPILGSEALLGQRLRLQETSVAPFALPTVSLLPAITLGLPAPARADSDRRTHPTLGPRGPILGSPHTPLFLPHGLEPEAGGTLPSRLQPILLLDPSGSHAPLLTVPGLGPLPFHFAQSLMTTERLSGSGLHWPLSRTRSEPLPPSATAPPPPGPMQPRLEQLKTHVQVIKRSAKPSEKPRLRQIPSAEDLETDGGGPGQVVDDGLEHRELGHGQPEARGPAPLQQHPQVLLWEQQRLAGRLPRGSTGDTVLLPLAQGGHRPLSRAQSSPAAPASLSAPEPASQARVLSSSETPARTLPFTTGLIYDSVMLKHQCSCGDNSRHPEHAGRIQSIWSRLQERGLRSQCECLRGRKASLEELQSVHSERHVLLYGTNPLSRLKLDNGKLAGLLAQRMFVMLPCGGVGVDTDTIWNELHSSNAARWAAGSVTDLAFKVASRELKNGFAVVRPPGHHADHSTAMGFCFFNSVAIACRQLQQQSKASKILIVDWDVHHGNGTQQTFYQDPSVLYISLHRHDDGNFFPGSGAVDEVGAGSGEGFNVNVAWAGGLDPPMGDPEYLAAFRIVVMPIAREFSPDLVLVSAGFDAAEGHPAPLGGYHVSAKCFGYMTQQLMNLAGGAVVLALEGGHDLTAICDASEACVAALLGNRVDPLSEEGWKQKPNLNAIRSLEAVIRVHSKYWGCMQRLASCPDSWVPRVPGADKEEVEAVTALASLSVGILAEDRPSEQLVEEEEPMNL
The description is as above. The settings on record: HDAC7; 37° C. 30 minutes.

Assay [13] deals with T2, HDAC11 (Homo sapiens, UniProt Q96DB2).
T2 sequence (Q96DB2 1-347): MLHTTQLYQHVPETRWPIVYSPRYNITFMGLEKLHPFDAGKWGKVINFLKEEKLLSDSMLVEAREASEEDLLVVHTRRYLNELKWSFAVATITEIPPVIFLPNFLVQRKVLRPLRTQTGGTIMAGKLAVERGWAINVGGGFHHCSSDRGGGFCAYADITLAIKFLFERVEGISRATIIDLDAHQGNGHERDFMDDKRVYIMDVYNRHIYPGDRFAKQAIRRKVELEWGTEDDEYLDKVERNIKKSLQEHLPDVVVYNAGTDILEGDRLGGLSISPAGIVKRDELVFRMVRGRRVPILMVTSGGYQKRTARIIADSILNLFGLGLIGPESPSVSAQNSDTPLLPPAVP
The description is as above.
Protocol: The chemical activity of the compound is determined according to the degree of deacetylation inhibition of the HDAC enzyme. This experiment measured the degree of deacetylation related to tumor proliferation and metastasis of HDAC1, HDAC2, HDAC3, HDAC8, HDAC11 five subtypes HDAC enzymes. After the substrate containing an acetylated lysine side chain and HDAC enzyme are labeled with a fluorescent label, the fluorescent substrate is de acetyl. The fluorescent labeled substrate is cleaved by the enzyme, and the fluorescent substance is released, which generates 460 nm emission light under the excitation of 360 nm light.
HDAC substrate was diluted with reaction buffer to 200M (reaction concentration of 20M), the HDAC enzyme was diluted to the appropriate concentration, then added different concentrations of the test compounds and acted at 37° C. 30 minutes, and then added the same volume of 2-times concentration substrate developing solution (developer), incubated at room temperature for 15 minutes.

The mark [14] stands for this setting: 72 hours incubation, read-out: GI50 PAN.
Setting [15] is: 72 hours incubation, read-out: GI50 Mol.
The mark [16] stands for this setting: 72 hours incubation, read-out: GI50 lnca.
The mark [17] stands for this setting: 72 hours incubation, read-out: GI50 A54.
[18] abbreviates: 72 hours incubation, read-out: GI50 MCF.
Setting [19] is: HDAC1, 37° C. 30 minutes, read-out: IC50 HDAC1.
[20] abbreviates: 72 hours, present invention, read-out: GI50 PANC-1, a.
Setting [21] is: PANC-1 cells, 72 hours incubation, read-out: GI50 PAN.
[22] abbreviates: MOLT-4 cells, 72 hours incubation, read-out: GI50 Mol.
Setting [23] is: 72 hours, present invention, read-out: GI50 Molt-4, a.
[24] abbreviates: 72 hours, present invention, read-out: GI50 lncap, a.
Setting [25] is: lncap cells, 72 hours incubation, read-out: GI50 lnca.
Setting [26] is: A549 cells, 72 hours incubation, read-out: GI50 A54.
[27] abbreviates: 72 hours, present invention, read-out: GI50 A549, a.
Setting [28] is: 72 hours, present invention, read-out: GI50 MCF7, a.
Where [29] appears, read: MCF-7 cells, 72 hours incubation, read-out: GI50 MCF.
Where [30] appears, read: Table 2, read-out: IC50 HDAC1, a (compounds of the present invention).
[31] abbreviates: read-out: IC50 HDAC11, HDAC11, 37° C. 30 minutes.
[32] abbreviates: Table 3, column C, read-out: IC50 HDAC1, C (six-membered ring with substituents).

Where two headings read alike, the source gives them in different places. Where only a bound is given, the exact number is not on record here.
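Throughout, for IC50 HDAC1, C (six-membered ring with substituents): fluorogenic acetyl-lysine substrate (20 µM) deacetylated by HDAC1, then developer releases fluorophore read at 360 nm excitation and 460 nm emission, inhibitor incubated 30 min at 37 °C.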
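Throughout, for IC50 HDAC1, a (compounds of the present invention): fluorogenic acetyl-lysine substrate (20 µM) deacetylated by HDAC1, then developer releases fluorophore read at 360 nm excitation and 460 nm emission, inhibitor incubated 30 min at 37 °C.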
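Throughout, for IC50 HDAC1: fluorogenic acetyl-lysine substrate (20 µM) deacetylated by HDAC1, then developer releases fluorophore read at 360 nm excitation and 460 nm emission, inhibitor incubated 30 min at 37 °C.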
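Throughout, for IC50 HDAC7: fluorogenic deacetylation assay using acetyl-lysine substrate at 20 µM, enzyme and compound incubated 30 min at 37 °C, then developer added, fluorescence read at 360/460 nm.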

Chain of HDAC1 (Q13547 whole entry, species assumed): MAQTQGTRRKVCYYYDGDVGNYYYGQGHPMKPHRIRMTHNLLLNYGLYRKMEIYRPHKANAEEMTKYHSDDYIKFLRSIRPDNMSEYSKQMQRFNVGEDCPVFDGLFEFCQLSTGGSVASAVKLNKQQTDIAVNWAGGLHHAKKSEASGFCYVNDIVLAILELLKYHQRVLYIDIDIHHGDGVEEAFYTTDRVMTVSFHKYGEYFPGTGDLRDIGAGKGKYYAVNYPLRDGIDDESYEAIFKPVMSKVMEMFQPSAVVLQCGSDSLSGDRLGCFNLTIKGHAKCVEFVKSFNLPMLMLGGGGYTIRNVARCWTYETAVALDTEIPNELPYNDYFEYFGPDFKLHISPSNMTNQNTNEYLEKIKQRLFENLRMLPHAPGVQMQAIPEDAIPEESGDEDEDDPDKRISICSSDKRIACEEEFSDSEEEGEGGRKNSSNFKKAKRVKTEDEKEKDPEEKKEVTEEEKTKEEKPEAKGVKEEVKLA
Chain of HDAC2 (Q92769 whole entry, species assumed): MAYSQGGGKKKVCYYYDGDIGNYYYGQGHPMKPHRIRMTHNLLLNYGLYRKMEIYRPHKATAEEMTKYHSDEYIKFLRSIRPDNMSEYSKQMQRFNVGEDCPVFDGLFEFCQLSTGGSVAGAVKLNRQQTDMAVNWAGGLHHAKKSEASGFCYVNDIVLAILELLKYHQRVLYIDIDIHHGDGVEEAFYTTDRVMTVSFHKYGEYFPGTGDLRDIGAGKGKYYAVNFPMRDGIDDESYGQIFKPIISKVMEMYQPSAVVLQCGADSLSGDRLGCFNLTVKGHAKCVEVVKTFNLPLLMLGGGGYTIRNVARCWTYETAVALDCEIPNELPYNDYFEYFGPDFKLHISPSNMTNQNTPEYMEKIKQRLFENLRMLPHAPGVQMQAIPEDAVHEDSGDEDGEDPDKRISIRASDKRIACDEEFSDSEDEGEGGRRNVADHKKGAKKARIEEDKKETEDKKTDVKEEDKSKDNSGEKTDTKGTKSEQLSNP

`C/C=C1\NC(=O)c2nccc(n2)CNC(=O)C[C@@H](/C=C/CCSC(C)=O)OC(=O)[C@H](C)NC1=O` [Example 24]: the GI50 – broadly, the concentration at which growth is held to half of that of the control – came out at 220 nM in [1] (setting [14]); 35 nM in assay [2]; 18 nM in assay [3]; 490 nM in assay [4] (setting [15]); 51 nM in [5]; 86 nM in assay [6]. The figures for the GI50 in [7] (setting [16]), in assay [8] (setting [17]) and in [9] (setting [18]) were 30 nM, 100 nM and 50 nM, respectively. Also, the IC50 – broadly, the midpoint of a concentration-inhibition curve – amounted to 74 nM in [10] (setting [19]), 83 nM in [11] and 97 nM in assay [13]. Also, the “IC50 HDAC7” value in assay [12] was “no activity”.

For `CCCCCCCC(=O)SCC/C=C/[C@@H]1CC(=O)NCc2cccc(n2)C(=O)NCC(=O)N[C@@H](C(C)C)C(=O)O1` [Compound 246], the GI50 was found to be 870 nM in assay [1] (setting [20]); 870 nM in assay [1] (setting [21]); 33 nM in assay [2]; 32 nM in assay [3]; 910 nM in [4] (setting [22]); 910 nM in assay [4] (setting [23]). The GI50 in assay [5] is 21 nM; in [6] it was 47 nM; in assay [7] (setting [24]), 130 nM; in assay [7] (setting [25]) it was 130 nM; in assay [8] (setting [26]) it was 110 nM; in [8] (setting [27]), 110 nM. In addition, the GI50 in [9] (setting [28]) and in [9] (setting [29]) was 310 nM each time. Further, the IC50 in [10] (setting [19]) was 90 nM; in assay [10] (setting [30]), < 100 nM; in assay [11], 69 nM; in assay [13] (setting [31]), 235 nM. Besides, in [12], the “IC50 HDAC7” value is reported as “no activity”.

Turning to `C/C=C1\NC(=O)c2cccc(n2)CNC(=O)C[C@@H](/C=C/CCSC(=O)CCCCCCC)OC(=O)[C@@H](C)NC1=O` [Compound 236], the GI50 came out at 210 nM in [1] (setting [20]); 210 nM in assay [1] (setting [21]); 53 nM in assay [2]; 48 nM in [3]; 860 nM in assay [4] (setting [22]); 860 nM in [4] (setting [23]). The GI50 in assay [5] was 67 nM; in [6] it was 17 nM; in assay [7] (setting [24]), 530 nM; in [7] (setting [25]), 50 nM; in assay [8] (setting [26]), 510 nM; in assay [8] (setting [27]) it was 510 nM. Further, the GI50 in [9] (setting [28]) and in [9] (setting [29]) was 760 nM in each case. Also, the IC50 was 43 nM in assay [10] (setting [19]), < 50 nM in [10] (setting [30]), 38 nM in assay [11] and 72 nM in assay [13] (setting [31]). Further, the “IC50 HDAC7” value in [12] is “no activity”.

With `C/C=C1\NC(=O)c2cc(F)cc(n2)CNC(=O)C[C@@H](/C=C/CCSC(=O)CC)OC(=O)[C@H](C(C)C)NC1=O` [Compound 46], the GI50 in assay [1] (setting [14]) turned out to be 50 nM; in assay [2], 47 nM; in [3] it was 57 nM; in assay [4] (setting [15]), 30 nM; in assay [5], 35 nM; in assay [6] it was 35 nM. Also, the GI50 in assay [7] (setting [16]) was 30 nM; in assay [8] (setting [17]), 50 nM; in assay [9] (setting [18]), 40 nM. For the same molecule, the IC50 was found to be 22 nM in assay [10] (setting [19]), 22 nM in [10] (setting [32]), 41 nM in [11] and 82 nM in assay [13] (setting [31]). Further, the “IC50 HDAC7” value in [12] is “no activity”.

With `C/C=C1\NC(=O)c2nc(ccc2F)CNC(=O)C[C@@H](/C=C/CCSC(C)=O)OC(=O)[C@H](CCCCN)NC1=O` [Compound 72], the GI50 turned out to be 60 nM in assay [1] (setting [14]); 39 nM in [2]; 26 nM in assay [3]; 30 nM in [4] (setting [15]); 37 nM in assay [5]; 37 nM in assay [6]. Moreover, the GI50 in assay [7] (setting [16]) was determined as 30 nM; in [8] (setting [17]) it was 20 nM; in assay [9] (setting [18]) it was 30 nM. For the same molecule, the IC50 in assay [10] (setting [19]) came out at 64 nM; in [10] (setting [32]), 64 nM; in assay [11], 331 nM; in [13] (setting [31]), 276 nM. In addition, the “IC50 HDAC7” value in assay [12] is listed as “no activity”.

For the molecule `C/C=C1\NC(=O)c2cc(F)cc(n2)CCNC(=O)C[C@@H](/C=C/CCSC(C)=O)OC(=O)[C@H](C(C)C)NC1=O` [Compound 104], the GI50 turned out to be 90 nM in assay [1] (setting [14]); 68 nM in [2]; 26 nM in [3]; 30 nM in assay [4] (setting [15]); 89 nM in [5]; 20 nM in assay [6]. Besides, the GI50 was 30 nM in assay [7] (setting [16]), 50 nM in assay [8] (setting [17]) and 20 nM in assay [9] (setting [18]). For the same molecule, the values for the IC50 in assay [10] (setting [19]), in [11] and in [13] were 51 nM, 26 nM and 83 nM, respectively. Besides, the “IC50 HDAC7” value in assay [12] is on record as “no activity”.

The values above are taken from patent publication US10065990B2, “Cyclic peptide compound, and preparation method, pharmaceutical composition and use thereof” (HANGZHOU GUANYU BIO-MEDICAL CO., LTD, priority 2013, dated 2018).
